# Measured values published in US11427869B2, “T cell balance gene expression, compositions of matters and methods of use thereof” (THE BROAD INSTITUTE, INC., priority 2015, dated 2022).
# Test system: Th17 cells
# Assay: Flow cytometry and intracellular cytokine staining of T cells
# Assay type: cell-based, mouse
# Method: WT, CD5L−/− and Rorγt−/− Th17 cells were differentiated with TGF-1+IL-6 for 96h. […] Three independent experiments were performed. […] (FIG. 18E) Naïve WT T cells were activated without polarizing cytokines (Th0) and infected with retrovirus expressing Rorγt in the presence of control-RV or CD5L-RV with or without FF-MAS (5 uM) as a source of Rorγt ligand. Each dot represents an independent infection. (FIG. 18F) WT or CD5L−/− naïve cells were differentiated with TGF-β1+IL-6. At 48h, cells were replated in fresh media with either control or FF-MAS (5 uM) as a source of Rorγt ligand. Cells were harvested for FACS analysis 72h later.
# T cell differentiation culture. Naïve CD4+CD44−CD62L+CD25− T cells or Effector memory CD4+CD44+CD62L− were sorted using BD FACSAria sorter and activated with plate-bound anti-CD3 and anti-CD28 antibodies (both at 2 μg/ml) in the presence of cytokines at a concentration of 2.5×10^5 cells/ml. For Th17 differentiation: 2 ng/ml of rhTGFβ1, 2 ng/ml of rhTGFβ3, 25 ng/ml rmIL-6, 20 ng/ml rmIL-18 (all from Miltenyi Biotec) and 20 ng/ml rmIL-23 (R & D systems) were used at various combinations as specified in figures. For Th1 differentiation, 20 ng/ml rmIL-12 (R & D systems); for Th2 differentiation 20 ng/ml rmIL-4 (Miltenyi Biotec); for iTreg differentiation, 2.5 ng/ml of rhTGFβ1 were used (Miltenyi Biotec). For differentiation experiments, cells were harvested at 48 hours. For restimulation experiments, cells were differentiated for 48 hours and resuspended in fresh media with no additional cytokines for 48-72 hours. Cells were re-stimulated with PMA/ionomycin for four hours before analysis for cytokines by intracellular cytokine staining. For experiments with exogenous fatty acid, fatty acids were purchased and resuspended first with serum-free media containing BSA prior being added to culture.
# Flow cytometry and intracellular cytokine staining. Sorted naïve T cells were stimulated with phorbol 12-myristate 13-acetate (PMA) (50 ng/ml, Sigma-aldrich), ionomycin (1 μg/ml, Sigma-aldrich) and a protein transport inhibitor containing monensin (Golgistop) (BD Biosciences) for 4 h before detection by staining with antibodies.
structure (smiles),measurement,setting,value
"CC(C)=CCC[C@@H](C)[C@H]1CC=C2C3=C(CC[C@@]21C)[C@@]1(C)CC[C@H](O)C(C)(C)[C@@H]1CC3 [Rorγt ligand, FF-MAS]",IL-17 expression,"Th0 cells with ectopic Rorγt expression and CD5L-RV, FF-MAS 5 uM",partially rescued
same,IL-17 production,"non-pathogenic Th17 cells (TGF-β1+IL-6), ligand (FF-MAS 5 uM) added at 48h, FACS 72h later",increased IL-17 production
